Reference: patent publication US20040087798A1, “Novel amide compounds” (priority 2000, published 2004)

What was measured:
5-HT2c binding site = molecular target: T1, 5-HT2c binding site (Rattus norvegicus, UniProt P08909); assay: [3H]-mesulergine binding; settings: test drug 10^−6M; displacement of [3H]-mesulergine (1 nM) in rat prefrontal cortex membranes; 30 nM spiperone present
T1 construct: ability to displace [^3H]-mesulergine in the rat prefrontal cortex; from tissue; host or cells: rat prefrontal cortex membrane suspension
T1 sequence (P08909 33-460): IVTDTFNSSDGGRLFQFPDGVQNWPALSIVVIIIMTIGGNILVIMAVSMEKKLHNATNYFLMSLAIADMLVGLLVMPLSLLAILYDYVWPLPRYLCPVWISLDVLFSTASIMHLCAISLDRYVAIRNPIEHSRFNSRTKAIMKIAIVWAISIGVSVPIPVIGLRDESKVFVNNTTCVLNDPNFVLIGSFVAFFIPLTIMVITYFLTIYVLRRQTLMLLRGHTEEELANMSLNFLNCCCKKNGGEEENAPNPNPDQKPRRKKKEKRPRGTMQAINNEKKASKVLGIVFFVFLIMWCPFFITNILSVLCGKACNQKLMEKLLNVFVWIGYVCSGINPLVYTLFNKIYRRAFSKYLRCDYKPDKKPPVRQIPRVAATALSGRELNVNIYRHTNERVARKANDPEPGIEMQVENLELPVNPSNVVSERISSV
Experimental: [^3H]-mesulergine Binding
The affinity of test drugs for the 5-HT2c binding site can be determined by assessing their ability to displace [^3H]-mesulergine in the rat prefrontal cortex. The method employed was similar to that of Pazos et al, 1984.
The membrane suspension (500 μl) was incubated with [^3H]-mesulergine (1 nM) in Tris hydrochloric acid buffer solution (pH 7.4) containing calcium chloride 4 mM and ascorbic acid 0.1% at 37° C. for 30 minutes. Non-specific binding was measured in the presence of mianserin (1 μM). 30 nM spiperone was used to prevent binding to 5-HT2A sites. Test drugs (10^−6M) were added in a volume of 100 μl. The total assay volume was 1000 μl. Incubation was stopped by rapid filtration using a Brandel cell harvester and radioactivity measured by scintillation counting.

O=C(C/C=C/c1ccccc1)Nc1cccc(-n2ccnc2)c1 [Compound (a), (3E)-N-[3-(imidazol-1-yl)phenyl]-4-phenyl-3-butenamide]
melting point: 130 to 133 °C | inhibition at 1 µM (5-HT2c binding site): 82%
